Data on 36 compounds can be found in a melting point compilation (Tetko et al.; mined from patent text by program, amines drawn as free bases though some values may be those of a salt).

As a reminder, the melting point is the temperature, or range, at which the solid turns liquid.

Regarding `COCCOc1ccc2cc3ccccc3cc2c1C=O`, the melting point is 114 to 117 °C.
In turn, `Clc1ccc(C2(Cl)c3ccc(Cl)cc3-c3ncncc32)cc1` (stereo unspecified) yielded a melting point of 152 to 153 °C.
The figure for `O=C(O)CCc1ccccc1C(=O)NCCc1ccccc1` is 106 to 108 °C; for `CC1CCN(c2ccc([N+](=O)[O-])cc2C(=O)c2ccc(Cl)c(Cl)c2)CC1` it is 116 °C; for `CN(SSN(C)S(=O)(=O)c1ccccc1)S(=O)(=O)c1ccccc1` it is 101 to 106 °C.
To `CC(C)CCOc1ccc(S(=O)(=O)C2(C(=O)NO)CCN(Cc3ccccc3)CC2)cc1` belongs 106 °C.
The figure for `CC(=O)NC[C@H]1CN(c2ccc(N3CCC(n4cc(CO)nn4)CC3)c(F)c2)C(=O)O1` is 160 to 162 °C.
For `CC(=O)NC1Cc2cc(CCN3CCN(c4nsc5ccccc45)CC3)ccc2C1(C)C` (stereo unspecified), the melting point is 58 to 68 °C.
The figure for `O=C1CS(=O)(=O)CN1c1cccc(C(F)(F)F)c1` is 115 to 117 °C.
The figure for `Nc1cc(I)cnc1N` is 109 to 111 °C.
Consider `COc1ccccc1Oc1c(Cl)nc(-c2ccccn2)nc1NS(=O)(=O)c1ccc(C(C)(C)C)cc1`, for which the melting point was 122 to 123 °C.
The figure for `CCCSC(C(N)=O)c1cccc(C(=O)c2ccc(F)cc2)c1N` (stereo unspecified) is 140 to 142 °C; for `NCC1CCc2c(O)cccc2C1` (stereo unspecified) it is 183 to 192 °C; for `CCOC(=O)C=C(C)c1ccc([N+](=O)[O-])cc1` it is 71 to 74 °C.
For `O=C(Cn1ccnc1)c1ccc(Cl)c(Cl)c1`, the melting point lay in the range of 126 to 128 °C.
For the compound `O=C(CCCCCOc1cc(-c2ccccc2)c2ccccc2n1)N1CCCC1`, the melting point was 52 to 54 °C.
Compound `Cc1nc(-c2cccc(C(=O)O)c2)nn1-c1cccc(F)c1` registered a melting point of 236 to 238 °C.
To `CC(=O)Nc1ccc(O)cc1F` belongs 124 °C.
In turn, `CCC(O)(CC)CC(=NO)C1(c2ccc(Cl)cc2)CCC1` returned a melting point of 113 to 115 °C.
The figure for `CC(C)(CNC=O)c1ccc(N)c([N+](=O)[O-])c1` is 113 to 115 °C.
The figure for `CSc1ccc(Cl)c(C(=O)NCC23CC4CC(CC(C4)C2)C3)c1` is 126 to 127 °C.
The figure for `CCN(CC)OP(=O)(Oc1ccccc1)Oc1ccccc1` is 51 to 53 °C.
For the compound `O=C(NCCO)c1ccc(-c2cccc3cc(Cc4cccc(C(F)(F)F)c4)sc23)cc1`, the melting point lay within 120 to 121 °C.
To `COc1cc2c(c3c1c(=O)c1cc4ccccc4cc1n3C)C=CC(C)(C)O2` belongs 188 °C.
The figure for `CS/C(=N\O)C(F)(F)F` is 52 to 54 °C.
To `CC(C)(C)NCC(O)COc1ccc(-c2nc(-c3ccccc3)c[nH]2)cc1` (stereo unspecified) belongs 176 to 178 °C; to `COc1ccc(-c2nc(CCO)sc2-c2ccc(OC)cc2)cc1`, 101 to 104 °C.
`Cc1nc(-c2ccccc2)c(CC(C)C(=O)O)o1` (stereo unspecified) returned a melting point of 109 to 110 °C.
`CC(=O)C1C(C(=O)c2ccc(Cl)cc2)CC2C3CCC4=CC(=O)CCC4(C)C3(F)C(O)CC21C` (stereo unspecified) returned a melting point of 280 to 281 °C.
`CCN(CC1CCN(C(=O)NC)CC1)C(C)Cc1ccc(OC)cc1` (stereo unspecified) showed a melting point of 97 to 98 °C.
`CSC(Cc1cnn(-c2c(Cl)cc(C(F)(F)F)cc2Cl)n1)SC` had a melting point of 97 to 98 °C.
The figure for `COc1cc(C(C)C)ccc1C1(Br)C(=O)c2cccc(NC(C)=O)c2C1=O` (stereo unspecified) is 143 to 145 °C.
In turn, `NS(=O)(=O)c1cscn1` came in with a melting point of 142 to 146 °C.
To `C[C@H](NC(=O)c1c(F)cccc1[N+](=O)[O-])C(=O)O` belongs 142 to 144 °C; to `CS(=O)(=O)C(=C1CN(C(c2ccc(Cl)cc2)c2ccc(Cl)cc2)C1)c1cccc(SC(F)(F)F)c1`, 70 °C; to `CC(=O)Nc1cccc(-n2nc(C(C)C)c(=O)n(Cc3ccc(Cl)cc3)c2=O)c1`, 178 °C.
